Values joined by “and” are separate entries in the source; they are usually repeats but may differ in a detail not shown here. Identical values can stand only once. Counter-ions that a name gives are not always drawn.
How the values were obtained:
[1] = target: Beta-3 adrenergic receptor (Homo sapiens, UniProt P13945); assay: Binding affinity to adrenergic beta3 receptor (unknown origin) by radioligand displacement assay
[2] = target: T1, 5-hydroxytryptamine receptor 3A (Homo sapiens, UniProt P46098)
T1 sequence (P46098 whole entry): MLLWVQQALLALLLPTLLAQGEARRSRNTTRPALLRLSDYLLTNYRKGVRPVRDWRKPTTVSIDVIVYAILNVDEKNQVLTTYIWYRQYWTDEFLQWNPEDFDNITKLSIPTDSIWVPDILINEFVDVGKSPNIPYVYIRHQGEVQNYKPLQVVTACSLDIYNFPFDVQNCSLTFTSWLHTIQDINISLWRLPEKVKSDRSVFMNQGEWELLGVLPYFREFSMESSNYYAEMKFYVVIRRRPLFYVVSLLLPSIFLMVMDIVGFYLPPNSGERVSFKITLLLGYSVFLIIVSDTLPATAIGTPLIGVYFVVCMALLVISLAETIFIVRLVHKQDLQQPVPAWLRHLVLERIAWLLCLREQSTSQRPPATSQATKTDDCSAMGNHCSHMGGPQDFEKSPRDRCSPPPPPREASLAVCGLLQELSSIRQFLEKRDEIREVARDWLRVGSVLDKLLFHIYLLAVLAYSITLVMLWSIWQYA
Description: Displacement of [3H]GR65630 from 5-HT3 receptor (unknown origin)

Mu-type opioid receptor = Mu-type opioid receptor (Homo sapiens, UniProt P35372); assay: Binding affinity to mu opioid receptor (unknown origin) by radioligand displacement assay
D(3) dopamine receptor = D(3) dopamine receptor (Homo sapiens, UniProt P35462)
Description: Displacement of [3H]N-Methylspiperone from dopamine D3 receptor (unknown origin)

[3] = target: Beta-2 adrenergic receptor (Homo sapiens, UniProt P07550); assay: Binding affinity to adrenergic beta2 receptor (unknown origin) by radioligand displacement assay
[4] = target: T2, Muscarinic acetylcholine receptor M4 (Homo sapiens, UniProt P08173); assay: Binding affinity to muscarinic M4 receptor (unknown origin) by radioligand displacement assay
T2 sequence (P08173 whole entry): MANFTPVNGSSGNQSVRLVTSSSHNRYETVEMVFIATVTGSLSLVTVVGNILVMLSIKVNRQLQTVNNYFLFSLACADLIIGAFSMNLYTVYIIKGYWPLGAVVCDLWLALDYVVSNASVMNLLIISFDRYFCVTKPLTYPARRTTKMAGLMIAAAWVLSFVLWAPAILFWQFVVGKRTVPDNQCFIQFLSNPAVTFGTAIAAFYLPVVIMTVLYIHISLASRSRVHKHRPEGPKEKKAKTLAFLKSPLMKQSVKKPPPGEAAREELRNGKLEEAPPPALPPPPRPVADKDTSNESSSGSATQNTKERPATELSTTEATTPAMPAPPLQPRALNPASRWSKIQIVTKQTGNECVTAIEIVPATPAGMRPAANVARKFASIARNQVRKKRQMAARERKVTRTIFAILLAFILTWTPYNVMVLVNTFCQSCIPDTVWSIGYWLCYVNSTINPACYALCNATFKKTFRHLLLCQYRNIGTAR

Histamine H3 receptor = Histamine H3 receptor (Homo sapiens, UniProt Q9Y5N1); assay: Binding affinity to histamine H3 receptor (unknown origin) by radioligand displacement assay
[5] = target: Beta-1 adrenergic receptor (Homo sapiens, UniProt P08588); assay: Binding affinity to adrenergic beta1 receptor (unknown origin) by radioligand displacement assay
D(4) dopamine receptor = target: T3, D(4) dopamine receptor (Homo sapiens, UniProt P21917)
T3 sequence (P21917 whole entry): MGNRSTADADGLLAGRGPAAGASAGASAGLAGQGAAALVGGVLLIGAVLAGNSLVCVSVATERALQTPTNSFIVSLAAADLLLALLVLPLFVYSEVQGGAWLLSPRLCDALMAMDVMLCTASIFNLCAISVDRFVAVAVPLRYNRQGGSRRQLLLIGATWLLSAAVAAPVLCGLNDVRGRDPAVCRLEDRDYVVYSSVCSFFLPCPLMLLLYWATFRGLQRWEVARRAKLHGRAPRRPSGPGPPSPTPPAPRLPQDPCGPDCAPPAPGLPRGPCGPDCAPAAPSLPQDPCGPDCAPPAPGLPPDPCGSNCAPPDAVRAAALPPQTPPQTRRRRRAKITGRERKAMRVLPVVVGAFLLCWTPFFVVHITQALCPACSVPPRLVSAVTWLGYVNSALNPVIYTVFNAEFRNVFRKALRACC
Description: Displacement of [3H]N-Methylspiperone from dopamine D4 receptor (unknown origin)

[6] = target: T4, Muscarinic acetylcholine receptor M2 (Homo sapiens, UniProt P08172); assay: Binding affinity to muscarinic M2 receptor (unknown origin) by radioligand displacement assay
T4 sequence (P08172 whole entry): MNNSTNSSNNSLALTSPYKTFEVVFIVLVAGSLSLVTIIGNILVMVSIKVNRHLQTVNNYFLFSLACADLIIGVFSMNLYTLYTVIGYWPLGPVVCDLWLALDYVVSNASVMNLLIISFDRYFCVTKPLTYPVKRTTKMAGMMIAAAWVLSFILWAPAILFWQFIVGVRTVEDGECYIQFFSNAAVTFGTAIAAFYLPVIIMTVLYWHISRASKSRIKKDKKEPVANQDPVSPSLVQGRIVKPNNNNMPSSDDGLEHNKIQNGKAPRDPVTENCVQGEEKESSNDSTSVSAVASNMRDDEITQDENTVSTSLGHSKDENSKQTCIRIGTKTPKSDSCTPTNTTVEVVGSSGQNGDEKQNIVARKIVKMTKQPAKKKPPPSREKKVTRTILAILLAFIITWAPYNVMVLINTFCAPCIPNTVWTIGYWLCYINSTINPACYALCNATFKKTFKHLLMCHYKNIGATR

D(1A) dopamine receptor = D(1A) dopamine receptor (Homo sapiens, UniProt P21728); assay: Binding affinity to dopamine D1 receptor (unknown origin) by radioligand displacement assay
[7] = target: Delta-type opioid receptor (Homo sapiens, UniProt P41143); assay: Binding affinity to delta opioid receptor (unknown origin) by radioligand displacement assay
[8] = target: Sodium-dependent noradrenaline transporter (Homo sapiens, UniProt P23975); assay: Displacement of [3H]Nisoxetine from norepinephrine transporter (unknown origin)
[9] = target: Sodium-dependent dopamine transporter (Homo sapiens, UniProt Q01959); assay: Binding affinity to dopamine transporter (unknown origin) by radioligand displacement assay
Histamine H1 receptor = Histamine H1 receptor (Homo sapiens, UniProt P35367)
Description: Displacement of [3H]Pyrilamine from histamine H1 receptor (unknown origin)

[10] = target: 5-hydroxytryptamine receptor 2B (Homo sapiens, UniProt P41595)
Description: Displacement of [3H]LSD from 5-HT2B receptor (unknown origin)

[11] = target: Alpha-2B adrenergic receptor (Homo sapiens, UniProt P18089)
Description: Displacement of [125I]Clonidine from adrenergic alpha2B receptor (unknown origin)

[12] = target: Alpha-1B adrenergic receptor (Homo sapiens, UniProt P35368)
Description: Displacement of [125I]HEAT from adrenergic alpha1B receptor (unknown origin)

[13] = target: 5-hydroxytryptamine receptor 1D (Homo sapiens, UniProt P28221); assay: Displacement of [3H]5-CT from 5-HT1D receptor (unknown origin)
[14] = target: Muscarinic acetylcholine receptor M3 (Homo sapiens, UniProt P20309)
Description: Displacement of [3H]QNB from muscarinic M3 receptor (unknown origin)

[15] = target: 5-hydroxytryptamine receptor 7 (Homo sapiens, UniProt P34969)
Description: Displacement of [3H]LSD from 5-HT7 receptor (unknown origin)

[16] = target: Sigma non-opioid intracellular receptor 1 (Homo sapiens, UniProt Q99720); assay: Displacement of [3H](+)Pentazocine from sigma 1 receptor (unknown origin)
[17] = target: 5-hydroxytryptamine receptor 5A (Homo sapiens, UniProt P47898)
Description: Displacement of [3H]LSD from 5-HT5A receptor (unknown origin)

[18] = target: 5-hydroxytryptamine receptor 1B (Homo sapiens, UniProt P28222)
Description: Displacement of [3H]5-CT from 5-HT1B receptor (unknown origin)

[19] = target: 5-hydroxytryptamine receptor 6 (Homo sapiens, UniProt P50406)
Description: Displacement of [3H]LSD from 5-HT6 receptor (unknown origin)

[20] = target: 5-hydroxytryptamine receptor 2C (Homo sapiens, UniProt P28335)
Description: Displacement of [3H]Mesulergine from 5-HT2C receptor (unknown origin)

[21] = target: Kappa-type opioid receptor (Homo sapiens, UniProt P41145); assay: Displacement of [3H]U69593 from kappa opioid receptor (unknown origin)
[22] = target: Alpha-2A adrenergic receptor (Homo sapiens, UniProt P08913)
Description: Displacement of [125I]Clonidine from adrenergic alpha2A receptor (unknown origin)

[23] = target: 5-hydroxytryptamine receptor 1E (Homo sapiens, UniProt P28566)
Description: Displacement of [3H]5HT from 5-HT1E receptor (unknown origin)

D(1B) dopamine receptor = D(1B) dopamine receptor (Homo sapiens, UniProt P21918)
[24] = target: Alpha-2C adrenergic receptor (Homo sapiens, UniProt P18825)
Description: Displacement of [125I]Clonidine from adrenergic alpha2C receptor (unknown origin)

[25] = target: Muscarinic acetylcholine receptor M1 (Homo sapiens, UniProt P11229)
Description: Displacement of [3H]QNB from muscarinic M1 receptor (unknown origin)

[26] = target: 5-hydroxytryptamine receptor 2A (Homo sapiens, UniProt P28223)
Description: Displacement of [3H]Ketanserin from 5-HT2A receptor (unknown origin)

[27] = target: Sodium-dependent serotonin transporter (Homo sapiens, UniProt P31645)
[28] = target: Alpha-1D adrenergic receptor (Homo sapiens, UniProt P25100)
[29] = target: Alpha-1A adrenergic receptor (Homo sapiens, UniProt P35348)
D(2) dopamine receptor = D(2) dopamine receptor (Homo sapiens, UniProt P14416); assay: Displacement of [3H]N-Methylspiperone from dopamine D2 receptor (unknown origin)
[30] = target: Muscarinic acetylcholine receptor M5 (Homo sapiens, UniProt P08912)
Description: Displacement of [3H]QNB from muscarinic M5 receptor (unknown origin)

Histamine H2 receptor = Histamine H2 receptor (Homo sapiens, UniProt P25021)
[31] = target: 5-hydroxytryptamine receptor 1A (Homo sapiens, UniProt P08908); assay: Displacement of [3H]WAY100635 from 5-HT1A receptor (unknown origin)

Mu-type opioid receptor, sequence (P35372 whole entry): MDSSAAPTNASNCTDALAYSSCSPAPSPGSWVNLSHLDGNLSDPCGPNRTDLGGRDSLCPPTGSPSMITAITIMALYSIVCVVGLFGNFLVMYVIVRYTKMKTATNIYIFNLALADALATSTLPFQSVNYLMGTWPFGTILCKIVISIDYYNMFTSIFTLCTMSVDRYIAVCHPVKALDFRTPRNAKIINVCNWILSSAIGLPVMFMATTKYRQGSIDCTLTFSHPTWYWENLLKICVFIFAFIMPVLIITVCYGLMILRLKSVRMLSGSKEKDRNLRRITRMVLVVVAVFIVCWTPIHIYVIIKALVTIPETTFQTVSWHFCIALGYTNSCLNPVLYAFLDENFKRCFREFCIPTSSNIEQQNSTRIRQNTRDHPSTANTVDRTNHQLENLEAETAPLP
Sodium-dependent dopamine transporter, sequence (Q01959 whole entry): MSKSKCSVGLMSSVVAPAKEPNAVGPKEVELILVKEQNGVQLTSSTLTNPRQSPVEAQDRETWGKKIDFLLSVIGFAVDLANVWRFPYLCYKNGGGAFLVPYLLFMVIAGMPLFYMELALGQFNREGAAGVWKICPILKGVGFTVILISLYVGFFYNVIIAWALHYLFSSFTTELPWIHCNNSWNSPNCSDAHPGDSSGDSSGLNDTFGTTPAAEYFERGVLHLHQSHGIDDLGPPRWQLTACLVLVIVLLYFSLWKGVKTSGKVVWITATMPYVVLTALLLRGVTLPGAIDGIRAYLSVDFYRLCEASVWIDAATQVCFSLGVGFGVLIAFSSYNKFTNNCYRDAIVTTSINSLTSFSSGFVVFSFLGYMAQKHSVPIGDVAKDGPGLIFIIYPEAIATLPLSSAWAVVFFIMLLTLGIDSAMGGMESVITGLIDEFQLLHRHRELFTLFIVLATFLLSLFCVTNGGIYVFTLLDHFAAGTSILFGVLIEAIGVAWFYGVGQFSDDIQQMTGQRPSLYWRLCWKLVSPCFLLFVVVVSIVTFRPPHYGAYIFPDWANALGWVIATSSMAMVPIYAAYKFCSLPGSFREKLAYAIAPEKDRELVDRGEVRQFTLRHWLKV
Beta-1 adrenergic receptor, sequence (P08588 whole entry): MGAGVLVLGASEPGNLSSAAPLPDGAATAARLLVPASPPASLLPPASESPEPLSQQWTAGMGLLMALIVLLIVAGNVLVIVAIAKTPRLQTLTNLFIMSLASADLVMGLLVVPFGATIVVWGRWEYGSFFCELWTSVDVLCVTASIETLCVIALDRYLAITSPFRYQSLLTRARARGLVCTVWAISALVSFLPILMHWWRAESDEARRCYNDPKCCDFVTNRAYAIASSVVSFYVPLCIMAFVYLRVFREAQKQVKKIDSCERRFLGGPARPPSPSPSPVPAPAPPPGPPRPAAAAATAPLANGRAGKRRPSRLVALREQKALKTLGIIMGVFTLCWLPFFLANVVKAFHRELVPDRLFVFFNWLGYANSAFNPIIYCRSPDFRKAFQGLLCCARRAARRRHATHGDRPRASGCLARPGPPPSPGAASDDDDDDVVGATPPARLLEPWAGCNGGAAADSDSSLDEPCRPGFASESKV
Beta-3 adrenergic receptor, sequence (P13945 whole entry): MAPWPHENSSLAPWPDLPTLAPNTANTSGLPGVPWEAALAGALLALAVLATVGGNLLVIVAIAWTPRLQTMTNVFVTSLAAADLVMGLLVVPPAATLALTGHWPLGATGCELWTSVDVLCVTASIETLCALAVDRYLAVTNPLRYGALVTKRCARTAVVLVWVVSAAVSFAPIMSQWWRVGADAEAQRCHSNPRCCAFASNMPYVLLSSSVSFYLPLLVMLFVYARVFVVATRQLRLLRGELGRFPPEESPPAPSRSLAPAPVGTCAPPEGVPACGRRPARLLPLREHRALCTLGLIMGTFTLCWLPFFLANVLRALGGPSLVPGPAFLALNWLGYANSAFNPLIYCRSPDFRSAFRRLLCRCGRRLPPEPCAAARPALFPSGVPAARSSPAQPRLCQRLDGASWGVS
Sodium-dependent noradrenaline transporter, sequence (P23975 whole entry): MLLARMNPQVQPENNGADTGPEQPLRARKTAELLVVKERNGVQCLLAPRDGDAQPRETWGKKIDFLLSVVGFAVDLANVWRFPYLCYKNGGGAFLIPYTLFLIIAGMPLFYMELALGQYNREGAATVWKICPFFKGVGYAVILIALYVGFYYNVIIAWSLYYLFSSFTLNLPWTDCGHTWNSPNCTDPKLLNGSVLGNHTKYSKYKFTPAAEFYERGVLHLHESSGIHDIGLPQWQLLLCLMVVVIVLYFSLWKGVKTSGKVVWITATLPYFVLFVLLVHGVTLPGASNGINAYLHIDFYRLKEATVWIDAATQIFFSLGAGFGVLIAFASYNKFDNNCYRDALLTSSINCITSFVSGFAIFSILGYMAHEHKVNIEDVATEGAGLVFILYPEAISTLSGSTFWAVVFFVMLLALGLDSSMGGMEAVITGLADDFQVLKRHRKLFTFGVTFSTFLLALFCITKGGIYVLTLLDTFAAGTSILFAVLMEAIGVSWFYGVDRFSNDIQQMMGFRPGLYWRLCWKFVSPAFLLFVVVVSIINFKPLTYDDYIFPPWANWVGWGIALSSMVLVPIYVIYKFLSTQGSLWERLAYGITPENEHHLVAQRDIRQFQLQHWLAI
Beta-2 adrenergic receptor, sequence (P07550 whole entry): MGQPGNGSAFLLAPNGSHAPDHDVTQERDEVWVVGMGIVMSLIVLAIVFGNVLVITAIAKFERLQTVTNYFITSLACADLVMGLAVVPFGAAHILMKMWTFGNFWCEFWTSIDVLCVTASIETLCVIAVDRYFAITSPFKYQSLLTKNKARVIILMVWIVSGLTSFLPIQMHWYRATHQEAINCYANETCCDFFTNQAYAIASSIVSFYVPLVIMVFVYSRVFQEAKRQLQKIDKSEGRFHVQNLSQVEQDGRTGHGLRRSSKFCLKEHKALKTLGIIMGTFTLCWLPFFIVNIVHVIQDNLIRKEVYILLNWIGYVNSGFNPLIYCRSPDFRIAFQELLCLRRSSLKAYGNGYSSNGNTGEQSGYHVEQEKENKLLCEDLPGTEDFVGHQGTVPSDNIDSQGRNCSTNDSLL
Histamine H2 receptor, sequence (P25021 whole entry): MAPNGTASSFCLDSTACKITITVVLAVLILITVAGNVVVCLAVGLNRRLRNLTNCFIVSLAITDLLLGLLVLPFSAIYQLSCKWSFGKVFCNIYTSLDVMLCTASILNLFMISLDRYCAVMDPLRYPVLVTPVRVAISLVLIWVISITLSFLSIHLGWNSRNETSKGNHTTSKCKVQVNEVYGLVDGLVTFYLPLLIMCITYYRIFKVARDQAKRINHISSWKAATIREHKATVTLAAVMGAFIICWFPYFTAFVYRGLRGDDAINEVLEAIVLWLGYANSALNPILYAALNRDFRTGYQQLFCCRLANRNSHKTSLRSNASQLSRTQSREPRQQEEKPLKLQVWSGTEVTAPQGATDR
D(1A) dopamine receptor, sequence (P21728 whole entry): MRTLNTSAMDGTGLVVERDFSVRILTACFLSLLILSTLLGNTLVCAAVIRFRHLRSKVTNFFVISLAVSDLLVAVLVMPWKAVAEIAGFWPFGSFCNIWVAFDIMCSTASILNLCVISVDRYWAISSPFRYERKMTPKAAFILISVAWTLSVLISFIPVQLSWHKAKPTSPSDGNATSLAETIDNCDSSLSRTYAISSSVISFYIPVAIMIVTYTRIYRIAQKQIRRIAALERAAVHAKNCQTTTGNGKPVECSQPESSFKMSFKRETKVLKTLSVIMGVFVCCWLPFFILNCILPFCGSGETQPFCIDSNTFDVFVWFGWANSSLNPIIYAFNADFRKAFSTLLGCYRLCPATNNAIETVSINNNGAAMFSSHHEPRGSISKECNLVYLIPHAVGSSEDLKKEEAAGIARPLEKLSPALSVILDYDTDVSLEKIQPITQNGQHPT
Delta-type opioid receptor, sequence (P41143 whole entry): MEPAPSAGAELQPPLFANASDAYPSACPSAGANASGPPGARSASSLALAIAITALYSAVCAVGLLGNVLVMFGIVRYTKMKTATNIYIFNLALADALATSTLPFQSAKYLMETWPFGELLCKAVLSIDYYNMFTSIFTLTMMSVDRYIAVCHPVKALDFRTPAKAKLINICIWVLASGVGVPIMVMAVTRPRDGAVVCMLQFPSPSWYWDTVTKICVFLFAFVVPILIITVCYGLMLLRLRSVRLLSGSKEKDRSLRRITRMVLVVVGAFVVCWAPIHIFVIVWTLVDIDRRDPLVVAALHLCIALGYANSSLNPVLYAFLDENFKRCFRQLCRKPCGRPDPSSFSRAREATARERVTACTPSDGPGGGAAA
Histamine H3 receptor, sequence (Q9Y5N1 whole entry): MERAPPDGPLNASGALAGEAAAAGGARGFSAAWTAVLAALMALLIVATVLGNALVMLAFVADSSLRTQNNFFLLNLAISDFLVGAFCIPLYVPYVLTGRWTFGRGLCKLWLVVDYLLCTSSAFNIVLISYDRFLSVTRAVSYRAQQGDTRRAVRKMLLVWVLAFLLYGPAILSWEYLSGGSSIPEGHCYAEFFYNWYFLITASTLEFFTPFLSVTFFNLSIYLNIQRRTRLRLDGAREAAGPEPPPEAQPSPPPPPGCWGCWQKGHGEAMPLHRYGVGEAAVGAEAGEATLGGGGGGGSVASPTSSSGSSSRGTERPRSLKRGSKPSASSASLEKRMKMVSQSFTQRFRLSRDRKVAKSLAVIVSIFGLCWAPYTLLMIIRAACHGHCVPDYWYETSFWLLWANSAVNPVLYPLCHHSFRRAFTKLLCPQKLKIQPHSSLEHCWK
5-hydroxytryptamine receptor 1E, sequence (P28566 whole entry): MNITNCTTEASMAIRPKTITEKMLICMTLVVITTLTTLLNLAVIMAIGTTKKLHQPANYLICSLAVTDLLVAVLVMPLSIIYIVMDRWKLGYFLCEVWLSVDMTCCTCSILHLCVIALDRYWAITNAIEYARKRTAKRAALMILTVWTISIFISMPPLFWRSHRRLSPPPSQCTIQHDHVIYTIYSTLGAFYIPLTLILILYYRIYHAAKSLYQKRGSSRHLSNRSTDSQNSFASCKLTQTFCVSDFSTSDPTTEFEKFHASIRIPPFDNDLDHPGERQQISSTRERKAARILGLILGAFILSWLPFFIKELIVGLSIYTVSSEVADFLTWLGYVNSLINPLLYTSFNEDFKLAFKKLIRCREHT

Ki [1] | Ki [2] | Ki (Mu-type opioid receptor) | Ki (D(3) dopamine receptor) | Ki [3] | Ki [4] | Ki (Histamine H3 receptor) | Ki [5] | Ki (D(4) dopamine receptor) | Ki [6] | Ki (D(1A) dopamine receptor) | Ki [7] | Ki [9] | Ki [10] | Ki [12] | Ki [14] | Ki [17] | Ki [20] | Ki [21] | Ki (Histamine H2 receptor) | Structure (SMILES) | further results
> 10 µM | > 10 µM | > 10 µM | > 10 µM | > 10 µM | > 10 µM | > 10 µM | > 10 µM | > 10 µM | > 10 µM | > 10 µM | > 10 µM | > 10 µM |  |  |  |  |  |  |  | CN1CCc2c(c3cccc4c3n2-c2ccccc2CC4)C1 | Ki ([8]; read-out: pKi (converted)): > 10 µM
> 10 µM | > 10 µM | > 10 µM |  | > 10 µM | > 10 µM | > 10 µM | > 10 µM | > 10 µM | > 10 µM | > 10 µM | > 10 µM | > 10 µM |  | > 10 µM | > 10 µM | > 10 µM | > 10 µM | > 10 µM | > 10 µM | CN1CCc2c(c3cccc4c3n2Cc2ccccc2C4)C1 | Ki ([16]; read-out: pKi (converted)): > 10 µM; Ki [23]: > 10 µM; Ki (D(1B) dopamine receptor): > 10 µM; Ki [25]: > 10 µM; Ki ([27]; read-out: pKi (converted)): > 10 µM; Ki ([28]; read-out: pKi (converted)): > 10 µM; Ki ([29]; read-out: pKi (converted)): > 10 µM; Ki (D(2) dopamine receptor): > 10 µM; Ki [30]: > 10 µM; Ki ([8]; read-out: Ki): 1.35 µM

The remaining lines, values behind:

Structure (SMILES) | Ki [1] | Ki [2] | Ki (Mu-type opioid receptor) | Ki (D(3) dopamine receptor) | Ki [3] | Ki [4] | Ki (Histamine H3 receptor) | Ki [5] | Ki (D(4) dopamine receptor) | Ki [6] | Ki (D(1A) dopamine receptor) | Ki [7] | Ki [9] | Ki [10] | Ki [12] | Ki [14] | Ki [17] | Ki [20] | Ki [21] | Ki (Histamine H2 receptor) | further results
CN1CCc2c(c3cccc4c3n2CCc2ccccc2-4)C1 | > 10 µM | 0.529 µM | > 10 µM | > 10 µM | > 10 µM | > 10 µM | > 10 µM | > 10 µM | 1.38 µM and 1.23 µM | > 10 µM | > 10 µM | > 10 µM | > 10 µM | 0.104 µM | 2.24 µM | > 10 µM | > 10 µM | > 10 µM | > 10 µM | 0.943 µM | Ki (Histamine H1 receptor): > 10 µM; Ki [11]: 4.35 µM; Ki [13]: 0.625 µM; Ki [15]: 0.195 µM; Ki ([16]; read-out: Ki): 0.22 µM; Ki [18]: 1.22 µM; Ki [19]: > 10 µM; Ki [22]: 0.407 µM; Ki [23]: > 10 µM; Ki (D(1B) dopamine receptor): > 10 µM; Ki [24]: 0.446 µM; Ki [25]: > 10 µM; Ki [26]: 0.257 µM; Ki ([27]; read-out: Ki): 0.413 µM; Ki ([28]; read-out: Ki): 0.293 µM; Ki ([29]; read-out: Ki): 0.286 µM; Ki (D(2) dopamine receptor): > 10 µM; Ki [30]: > 10 µM; Ki ([8]; read-out: Ki): 1.95 µM; Ki [31]: > 10 µM
Cn1ccc2cc3c(cc21)CCN3C(=O)Nc1cccnc1 |  |  |  |  |  |  |  |  |  |  |  |  |  | 0.012 µM |  |  |  |  |  |  | 
CN1CC2c3ccccc3Oc3ccc(Cl)cc3C2C1 (centres undefined) [ASENAPINE MALEATE] |  |  |  |  |  |  |  |  |  |  |  |  |  |  |  |  |  |  |  | 0.0057 µM | 
